Results from paper PMC10917816, “Synthesis and evaluation of coumarin derivatives on antioxidative, tyrosinase inhibitory activities, melanogenesis, and in silico investigations” (Scientific Reports, 2024).
Entries after “also recorded” stand apart in the source; their conditions may differ. Where two headings read alike, the source gives them in different places.

Assays:
[1] = Lipid peroxidation inhibitory activity (thiobarbituric acid test, linoleic acid); details: at 1 mg/ml of tested compound; TBA test
mushroom tyrosinase [2] = biological target: T1, mushroom tyrosinase (Agaricus bisporus, UniProt C7FF04); assay: Mushroom tyrosinase activity assay (L-DOPA substrate); assay type: biochemical; details: for activity at 100 µM: <100 inhibitor, >100 activator; for Activity (inhibitor or activator of mushroom tyrosinase): classified from %activity at 100 µM (<100 inhibitor, >100 activator)
Description: Samples were dissolved in a mixture of DMSO and the phosphate buffer solution (40%DMSO, 20 µL) and were added into a 96-well microplate filled with phosphate buffer (20 mM, pH 6.8, 140 µL), mushroom tyrosinase (30 U/mL, 20 µL). After 10 min of pre-incubation at room temperature (25 °C), 20 µL of a 0.85 mM L-DOPA (3,4-dihydroxyphenylalanine) solution in phosphate buffer was added to the mixture. (Final concentration of the tested compound equaled 100 µM and final DMSO content equaled 4%). […] Instead of an inhibitor solution, phosphate buffer was added as the negative control. The percentage of tyrosinase activity was calculated as follows: %Activity = (Sample) × 100/Blank, where Blank = (OD of Blank solution at 10 min)—(OD of Blank solution at 0 min) and Sample = (OD of Sample solution at 10 min)—(OD of Sample solution at 0 min). Each sample was analyzed in triplicate (n = 3). […] Each sample was examined in triplicate.
Target sequence in this assay (C7FF04 1-392): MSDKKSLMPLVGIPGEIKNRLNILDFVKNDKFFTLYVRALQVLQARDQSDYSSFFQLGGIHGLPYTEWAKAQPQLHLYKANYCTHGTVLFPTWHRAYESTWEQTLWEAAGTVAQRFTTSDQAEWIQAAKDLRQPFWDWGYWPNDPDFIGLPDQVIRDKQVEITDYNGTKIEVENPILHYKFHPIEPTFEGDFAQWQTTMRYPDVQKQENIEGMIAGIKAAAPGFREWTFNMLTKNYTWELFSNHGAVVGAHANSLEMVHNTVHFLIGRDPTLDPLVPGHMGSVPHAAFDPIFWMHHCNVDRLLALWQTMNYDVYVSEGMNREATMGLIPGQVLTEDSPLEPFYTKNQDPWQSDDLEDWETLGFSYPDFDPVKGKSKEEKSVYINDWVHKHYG

mushroom tyrosinase [3] = biological target: T1, mushroom tyrosinase; assay: Enzyme kinetic study (Lineweaver–Burk plot); assay type: biochemical; design: purchased Sigma-Aldrich or Merck AG; details: double-reciprocal (Lineweaver–Burk) plots
Description: Double-reciprocal plots were used to investigate the mechanisms of mushroom tyrosinase inhibition by compound 13 (Fig. 2).
Utilizing the same protocol as the tyrosinase activity assay, an enzyme kinetics study was conducted with compound 13. A Michaelis–Menten plot was generated by varying the substrate concentration (25–10,000 µM) and reaction rate under conditions with and without inhibitors. A Lineweaver–Burk plot was generated, and the inhibition mode of the inhibitor was determined based on the variation of Km and Vmax as the inhibitor concentration changed.
Target sequence in this assay (C7FF04 1-392 limits assumed): as the sequence (C7FF04 1-392) above

B16F10 cells = assay: Melanin content assay; assay type: cell-based, Mus musculus; details: 48 h
Description: Compound 13 and compound 14 were also determined for their melanogenesis activities in the B16F10 cells. Intracellular melanin content was measured. […] However, the increase in melanin content in the cells was lower than cells treated with 8-MOP (Fig. 8B).
The method for the melanin content assay was modified from Lee et al.[37]. B16F10 (8 × 10^4 cell/mL) cells were seeded in a 6-well plate and incubated at 37 °C in a 5% CO2 incubator for 24 h. The tested and reference compounds in various concentrations were mixed with α-melanocyte stimulating hormone (α-MSH, 10 nM) and added to the well. The cells were continuously incubated at 37 °C for 48 h. Then, the cells were washed twice with 10 mM phosphate buffer pH 7.4. 1 M NaOH (0.2 mL) was added to each well and warmed at 65 °C for 1 h. The mixture was centrifuged at 12,000 rpm for 10 min. The absorbance of the supernatant was measured at 405 nm. The percent melanin content in the treatment group was obtained from the absorbance and calculated as a percentage compared to the untreated group.

[4] = Cell viability assay (MTT); assay type: cell-based, Mus musculus; details: mouse, B16F10 melanoma cells
Description: (§1) B16F10 cells were incubated with compounds 13 (25–100 µM) and 14 (25–150 µM) for 48 h. KA (50–200 µM) and 8-MOP (50–150 µM) were used as reference compounds for the tyrosinase inhibitor and the activator, respectively. […] (%viability decreased to 50%).
(§2) B16F10 cells (ATCC-CRL-6475, USA) were cultured in Dulbecco’s modified eagle medium (DMEM) containing 10% fetal bovine serum (FBS), 100 U/mL penicillin, and 1 μg/mL streptomycin. Cell viability was evaluated using the MTT assay. B16F10 cells (5 × 10^3 cells/well) were cultured in a 96-well plate at 37 °C in a 5% CO2 incubator for 24 h. Tested compounds dissolved in DMSO/H2O (40% v/v) at different concentrations were added to sample wells, and the cells were further incubated at 37 °C in a 5% CO2 incubator for 48 h. Then, 50 µL of methylthiazolyldiphenyl-tetrazolium bromide (MTT) solution (0.5 mg/ml in 10 mM phosphate buffer, pH 7.4) was added to each well and left under a CO2 incubator for 2 h. The formazan crystals formed were dissolved in DMSO, and the absorbance was measured at 570 nm. Percent viability was calculated as the percent of surviving cells in the well compared to the control cells.

B16F10 melanoma cells = assay: Cell viability assay (MTT); assay type: cell-based, Mus musculus; details: 48 h
Description: as §1, §2

murine tyrosinase = details: broad range; cited from earlier work
[5] = at 100 µM of tested compound, read-out: Mushroom tyrosinase %Activity ± S.D.

**Q.** For `Cc1cc(C(C)(C)C)c(O)c(C(C)(C)C)c1` [BHT, butylated hydroxytoluene, reference compound], which “Lipid peroxidation %Inhibition ± S.D.” value [1] is on record?
**A.** 62.90 ± 3.56%

**Q.** For `CCOC(=O)C(Cc1ccccc1)NC(=O)Cc1cc(=O)oc2cc(O)ccc12` (stereo not drawn) [Compound 7, Ethyl 2-(2-(7-hydroxy-2-oxo-2H-chromen-4-yl)acetamido)-3-phenylpropanoate], which “Lipid peroxidation %Inhibition ± S.D.” value [1] is on record?
**A.** 98.66 ± 1.57%

**Q.** And the activity at 100 µM (mushroom tyrosinase [2]; [5])?
**A.** 86.2 ± 10.5%

**Q.** What about the “Activity (inhibitor or activator of mushroom tyrosinase)” value (mushroom tyrosinase [2]) of the same compound?
**A.** Inhibitor

**Q.** What about the melting point of the same compound?
**A.** 139 to 140 °C

**Q.** For `CCOC(=O)C(Cc1ccc(O)cc1)NC(=O)Cc1cc(=O)oc2cc(O)ccc12` (stereo not drawn) [Compound 8, Ethyl 2-(2-(7-hydroxy-2-oxo-2H-chromen-4-yl)acetamido)-3-(4-hydroxyphenyl)propanoate], which “Lipid peroxidation %Inhibition ± S.D.” value [1] is on record?
**A.** 44.32 ± 4.16%

**Q.** And the activity at 100 µM (mushroom tyrosinase [2]; [5])?
**A.** 107 ± 9.89%

**Q.** What about the “Activity (inhibitor or activator of mushroom tyrosinase)” value (mushroom tyrosinase [2]) of the same compound?
**A.** Activator

**Q.** What about the melting point of the same compound?
**A.** 152 to 154 °C

**Q.** Which “Activity (inhibitor or activator of mushroom tyrosinase)” value (mushroom tyrosinase [2]) does the source give for `COc1c2occc2cc2ccc(=O)oc12` [Compound 8-MOP, 8-methoxypsoralen, reference compound] here?
**A.** Activator

**Q.** What about the activity at 100 µM (mushroom tyrosinase [2]; read-out: Mushroom tyrosinase %Activity ± S.D., at 100 µM of tested compound) of the same compound?
**A.** 101 ± 6.18%

**Q.** Which “Lipid peroxidation %Inhibition ± S.D.” value [1] does the source give for `CCOC(=O)C(Cc1cc2ccccc2[nH]1)NC(=O)Cc1cc(=O)oc2cc(O)ccc12` (stereo not drawn) [Compound 9, Ethyl 2-(2-(7-hydroxy-2-oxo-2H-chromen-4-yl)acetamido)-3-(1H-indol-2-yl)propanoate] here?
**A.** 77.57 ± 4.11%

**Q.** What about the activity at 100 µM (mushroom tyrosinase [2]; [5]) of the same compound?
**A.** 98.3 ± 2.55%

**Q.** And the “Activity (inhibitor or activator of mushroom tyrosinase)” value (mushroom tyrosinase [2])?
**A.** Inhibitor

**Q.** What about the melting point of the same compound?
**A.** 185 to 188 °C

**Q.** What does the source list for `O=C(Cc1cc(=O)oc2cc(O)ccc12)NCCc1ccc(O)cc1` [Compound 10, N-(4-hydroxyphenethyl)-2-(7-hydroxy-2-oxo-2H-chromen-4-yl)acetamide]?
**A.** Lipid peroxidation %Inhibition ± S.D. [1]: 27.51 ± 2.78%; activity at 100 µM (mushroom tyrosinase [2]; [5]): 121 ± 7.51%; Activity (inhibitor or activator of mushroom tyrosinase) (mushroom tyrosinase [2]): Activator; melting point: 223 to 225 °C

**Q.** Which “Lipid peroxidation %Inhibition ± S.D.” value [1] does the source give for `CCOC(=O)C(Cc1ccccc1)NC(=O)Cc1cc(=O)oc2cc(OC)ccc12` (stereo not drawn) [Compound 11, Ethyl 2-(2-(7-methoxy-2-oxo-2H-chromen-4-yl)acetamido)-3-phenylpropanoate] here?
**A.** 87.68 ± 1.09%

**Q.** And the activity at 100 µM (mushroom tyrosinase [2]; [5])?
**A.** 81.3 ± 3.72%

**Q.** What about the “Activity (inhibitor or activator of mushroom tyrosinase)” value (mushroom tyrosinase [2]) of the same compound?
**A.** Inhibitor

**Q.** And the melting point?
**A.** 144 to 145 °C

**Q.** Which “Lipid peroxidation %Inhibition ± S.D.” value [1] does the source give for `CCOC(=O)C(Cc1ccc(O)cc1)NC(=O)Cc1cc(=O)oc2cc(OC)ccc12` (stereo not drawn) [Compound 12, Ethyl 2-(2-(7-methoxy-2-oxo-2H-chromen-4-yl)acetamido)-3-(4-hydroxyphenyl) propanoate] here?
**A.** 77.84 ± 3.25%

**Q.** And the activity at 100 µM (mushroom tyrosinase [2]; [5])?
**A.** 113 ± 8.16%

**Q.** And the “Activity (inhibitor or activator of mushroom tyrosinase)” value (mushroom tyrosinase [2])?
**A.** Activator

**Q.** And the melting point?
**A.** 154 to 155 °C

**Q.** For `CCOC(=O)C(Cc1c[nH]c2ccccc12)NC(=O)Cc1cc(=O)oc2cc(OC)ccc12` (stereo not drawn) [Compound 13], which “Mechanism of mushroom tyrosinase inhibition” value (mushroom tyrosinase [3]) is on record?
**A.** uncompetitive inhibition; also recorded: uncompetitively inhibited the tyrosinase enzyme; also recorded: uncompetitive tyrosinase inhibitor

**Q.** And the “Lipid peroxidation %Inhibition ± S.D.” value [1]?
**A.** 67.88 ± 5.48%

**Q.** What about the “Effect on melanogenesis (intracellular melanin content) in B16F10 cells” value (B16F10 cells; 25 μM, with α-MSH, compared with KA at 100 μM) of the same compound?
**A.** inhibited melanogenesis equally to KA at 100 μM

**Q.** What about the “Effect on melanogenesis (intracellular melanin content) in B16F10 cells” value (B16F10 cells; 50 μM, with α-MSH, compared with KA at 100 μM) of the same compound?
**A.** suppressed melanogenesis in B16F10 cells with two times higher potency than KA; also recorded: suppressed melanogenesis with approximately two times higher potency than KA at 100 μM; also recorded: higher melanin suppression at a lower concentration (50 μM) than KA (100 μM)

**Q.** And the activity at 100 µM (mushroom tyrosinase [2]; [5])?
**A.** 51.1 ± 9.45%

**Q.** And the “Activity (inhibitor or activator of mushroom tyrosinase)” value (mushroom tyrosinase [2])?
**A.** Inhibitor

**Q.** What about the melting point of the same compound?
**A.** 162 to 163 °C

**Q.** And the viability at 48 h, 75 µM ([4]; 75 µM)?
**A.** 50%

**Q.** And the viability at 48 h ([4]; 25–50 µM)?
**A.** > 80%

**Q.** And the “Cytotoxicity against B16F10 cells” value (B16F10 melanoma cells; 25–50 μM)?
**A.** did not show cytotoxicity

**Q.** Which results are given for `COc1ccc2c(CC(=O)NCCc3ccc(O)cc3)cc(=O)oc2c1` [Compound 14, N-(4-hydroxyphenethyl)-2-(7-methoxy-2-oxo-2H-chromen-4-yl)acetamide]?
**A.** Lipid peroxidation %Inhibition ± S.D. [1]: 26.66 ± 1.67%; Effect on melanogenesis (intracellular melanin content) in B16F10 cells (B16F10 cells; 25–100 μM, compared with 8-MOP): melanogenesis enhancement in B16F10 cells in a dose-dependent manner, however, inferior to the 8-MOP; also recorded: effectively enhanced melanogenesis in B16F10 cells in a dose-dependent manner; activity at 100 µM (mushroom tyrosinase [2]; [5]): 123 ± 13.4%; Activity (inhibitor or activator of mushroom tyrosinase) (mushroom tyrosinase [2]): Activator; melting point: 152 to 153 °C; Cytotoxicity against B16F10 cells (B16F10 melanoma cells; 25–100 μM): did not show cytotoxicity

**Q.** Which results are given for `CCOC(=O)C(Cc1ccccc1)NC(=O)Cc1cc(=O)oc2cc(OC)c(O)cc12` (stereo not drawn) [Compound 15, Ethyl 2-(2-(6-hydroxy-7-methoxy-2-oxo-2H-chromen-4-yl)acetamido)-3-phenylpropanoate]?
**A.** Lipid peroxidation %Inhibition ± S.D. [1]: 98.06 ± 0.54%; activity at 100 µM (mushroom tyrosinase [2]; [5]): 90.8 ± 12.4%; Activity (inhibitor or activator of mushroom tyrosinase) (mushroom tyrosinase [2]): Inhibitor; melting point: 184 to 185 °C

**Q.** Which results are given for `CCOC(=O)C(Cc1ccc(O)cc1)NC(=O)Cc1cc(=O)oc2cc(OC)c(O)cc12` (stereo not drawn) [Compound 16, Ethyl 2-(2-(6-hydroxy-7-methoxy-2-oxo-2H-chromen-4-yl)acetamido)-3-(4-hydroxyphenyl) propanoate]?
**A.** Lipid peroxidation %Inhibition ± S.D. [1]: 79.31 ± 2.77%; activity at 100 µM (mushroom tyrosinase [2]; [5]): 100 ± 3.13%; Activity (inhibitor or activator of mushroom tyrosinase) (mushroom tyrosinase [2]): Activator; melting point: 198 to 200 °C

**Q.** Which “Lipid peroxidation %Inhibition ± S.D.” value [1] does the source give for `CCOC(=O)C(Cc1c[nH]c2ccccc12)NC(=O)Cc1cc(=O)oc2cc(OC)c(O)cc12` (stereo not drawn) [Compound 17] here?
**A.** 91.84 ± 5.39%

**Q.** And the activity at 100 µM (mushroom tyrosinase [2]; [5])?
**A.** 75.9 ± 8.95%

**Q.** What about the “Activity (inhibitor or activator of mushroom tyrosinase)” value (mushroom tyrosinase [2]) of the same compound?
**A.** Inhibitor

**Q.** What about the melting point of the same compound?
**A.** 173 to 174 °C

**Q.** With `COc1cc2oc(=O)cc(CC(=O)NCCc3ccc(O)cc3)c2cc1O` [Compound 18, N-(4-hydroxyphenethyl)-2-(6-hydroxy-7-methoxy-2-oxo-2H-chromen-4-yl)acetamide] as the compound, how does the “Lipid peroxidation %Inhibition ± S.D.” value [1] read?
**A.** 63.40 ± 0.89%

**Q.** And the activity at 100 µM (mushroom tyrosinase [2]; [5])?
**A.** 115 ± 3.87%

**Q.** What about the “Activity (inhibitor or activator of mushroom tyrosinase)” value (mushroom tyrosinase [2]) of the same compound?
**A.** Activator

**Q.** And the melting point?
**A.** 227 to 228 °C

**Q.** Which “Activity against murine tyrosinase” value (murine tyrosinase) does the source give for `O=c1cc(CO)occ1O` [KA, kojic acid] here?
**A.** > 100 µM
